From patent US20040192554A1, “Technique for effectively treating an agricultural product with a 1-substituted-cyclopropene” (priority 2003, published 2004)

Columns and labels:
Format in all cases: in vivo
[1] = tested on: Japanese pear (variety "Shinsei") fruit; assay: Quality deterioration of Japanese pear (Shinsei) fruit after storage, Example 2; conditions: 1 ppm, after storage 25 degrees C 2 weeks
Method: Using a Japanese pear (variety “Shinsei”) fruit (6 fruits were used per group) as an agricultural product, the following experiment was performed.
(§1) 1) A fruit and 1-methylcyclopropene (concentration 1 ppm in a chamber) were placed into a sealed chamber, and contact-treated for 16 hours under a normal pressure.
2) A fruit was placed into a sealed chamber, and a pressure in the chamber was reduced to 12.5 kPa. Subsequently, 1-methylcyclopropene was placed therein to the concentration in the chamber of 1 ppm, and contact-treated for 1 minute or 10 minutes under the reduced pressure (12.5 kPa).
(§2) The fruit which had been subjected to treatment of the above-mentioned 1) or 2) was stored at 25 degrees C for 2 weeks, and hardness of flesh and pH of a fruit juice which is an index for the content of an acid were measured. In addition, browning of flesh and fruit core, which is an index for an extent of storage disorder was assessed by naked eyes. Contact treatment of the above-mentioned 1) or 2) was performed on a day of harvesting a fruit. In addition, also regarding a fruit undergoing no treatment of 1) or 2) (non-treatment), similar storage was performed, and the above-mentioned index was measured and assessed. Further, regarding non-treated fruit, the above-mentioned index before storage was also measured and assessed. Different alpha characters in the same column after storage indicate that a significant difference was recognized at a risk rate of 5% (multiple range test of Newman-Keuls).

[2] = tested on: Japanese pear (variety "Kosui") fruit; assay: Quality deterioration of Japanese pear (Kosui) fruit after storage, Example 3; conditions: 1 ppm, after storage 25 degrees C 2 weeks
Method: Using a Japanese pear (variety “Kosui”) fruit (6 fruits were used per group) as an agricultural product, the following experiment was performed.
as §1
(§3) 2) A fruit was placed into a sealed chamber, and a pressure in the chamber was reduced to 25.0 kPa. Subsequently, 1-methylcyclopropene was placed therein to the concentration in the chamber of 1 ppm, and contact-treated for 1 minute under the reduced pressure (25.0 kPa).
as §2, with “addition,” for “addition, browning of flesh and fruit core, which is an index for”, “tasting.” for “naked eyes.”, “Table 3” for “the same column after storage”

[3] = tested on: Japanese pear (variety "Hosui") fruit; assay: Quality deterioration of Japanese pear (Hosui) fruit after storage, Example 4; conditions: 1 ppm, after storage 25 degrees C 2 weeks
Method: Using a Japanese pear (variety “Hosui”) fruit (6 fruits were used per group) as an agricultural product, the following experiment was performed.
as §1, §3
as §2, with “measured.” for “measured. In addition, browning of flesh and fruit core, which is an index for an extent of storage disorder was assessed by naked eyes.”, “measured.” for “measured and assessed.”, “Table 4” for “the same column after storage”

[4] = tested on: apple (variety "Sansa") fruit; assay: Quality deterioration of apple (Sansa) fruit after storage, Example 5; conditions: 1 ppm, after storage 25 degrees C 2 weeks
Method: Using an apple (variety “Sansa”) fruit (6 fruits were used per group) as an agricultural product, the following experiment was performed.
1) A fruit and 1-methylcyclopropene (concentration 1 ppm in a chamber) were placed into a sealed chamber, and contact-treated for 12 hours under a normal pressure.
as §3
The fruit which had been subjected to treatment of the above-mentioned 1) or 2) was stored at 25 degrees C for 2 weeks, and hardness of flesh, pH of a fruit juice which is an index for the content of an acid, and the ethylene concentration in a fruit core were measured. Contact treatment of the above-mentioned 1) or 2) was performed on the following day of harvesting a fruit. In addition, also regarding a fruit undergoing no treatment of 1) or 2) (non-treatment), similar storage was performed, and the above-mentioned index was measured. Further, regarding non-treated fruit, the above-mentioned index before storage was also measured. Different alpha characters in Table 4 indicate that a significant difference was recognized at a risk rate of 5% (multiple range test of Newman-Keuls).

[5] = tested on: apple (variety "Orin") fruit; assay: Quality deterioration of apple (Orin) fruit after storage, Example 6; conditions: 1 ppm, after storage 25 degrees C 3 weeks
Method: Using an apple (variety “Orin”) fruit (6 fruits were used per group) as an agricultural product, the following experiment was performed.
as §1
2) A fruit was placed into a sealed chamber, and a pressure in the chamber was reduced to 25.0 kPa. Subsequently, 1-methylcyclopropene was placed therein to the concentration in the chamber of 1 ppm, and contact-treated for 1 hour under the reduced pressure (25.0 kPa).
3) A fruit was placed into a sealed chamber. Subsequently, a pressure in the chamber was reduced to 25.0 kPa, and the fruit was kept in the chamber for 1 hour under the reduced pressure (25.0 kPa).
The fruit which had been subjected to treatment of the above-mentioned 1), 2) or 3) was stored at 25 degrees C for 3 weeks, and hardness of flesh and mealy of flesh were measured. In addition, treatments of the above-mentioned 1), 2) and 3) were performed regarding fruits which had been stored for about 1 month after harvesting of fruit. In addition, also regarding a fruit undergoing no treatment of 1), 2) or 3) (non-treatment), similar storage was performed, and the above-mentioned index was measured. Further, regarding non-treated fruit, the above-mentioned index before storage was also measured. Different alpha characters in Table 6 indicate that a significant difference was recognized at a risk rate of 5% (multiple range test of Newman-Keuls).

[6] = Reduced pressure (12.5 kPa) 1 minute
[7] = Reduced pressure (12.5 kPa) 10 minutes
[8] = Reduced pressure (25.0 kPa) 1 minute
[9] = Reduced pressure (25.0 kPa) 1 hour

CC1=CC1 [1-MCP, 1-methylcyclopropene]
Hardness of flesh ([1]; Normal pressure 16 hours): 22.74c N | Presence or absence of browning ([1]; Normal pressure 16 hours): Absence | pH of fruit juice ([1]; Normal pressure 16 hours): 4.92a | Hardness of flesh [1, 6]: 18.72b N | Presence or absence of browning [1, 6]: Absence | pH of fruit juice [1, 6]: 4.90a | Hardness of flesh [1, 7]: 22.25c N | Presence or absence of browning [1, 7]: Absence | pH of fruit juice [1, 7]: 5.00ab | Hardness of flesh ([2]; Normal pressure 16 hours): 22.44 N | Tasting ([2]; Normal pressure 16 hours): Better | pH of fruit juice ([2]; Normal pressure 16 hours): 5.22a | Hardness of flesh [2, 8]: 21.36 N | Tasting [2, 8]: Better | pH of fruit juice [2, 8]: 5.57b | Hardness of flesh ([3]; Normal pressure 16 hours): 18.72 N | pH of fruit juice ([3]; Normal pressure 16 hours): 4.37a | Hardness of flesh [3, 8]: 17.25 N | pH of fruit juice [3, 8]: 4.43a | Ethylene concentration in fruit core ([4]; Normal pressure 12 hours): 1.86a μL/L | Hardness of flesh ([4]; Normal pressure 12 hours): 61.05b N | pH of fruit juice ([4]; Normal pressure 12 hours): 3.38a | Ethylene concentration in fruit core [4, 8]: 0.97a μL/L | Hardness of flesh [4, 8]: 63.21b N | pH of fruit juice [4, 8]: 3.40a | Hardness of flesh ([5]; Normal pressure 16 hours): 42.06ab N | Mealy of flesh ([5]; Normal pressure 16 hours): Slight | Hardness of flesh [5, 9]: 44.02b N | Mealy of flesh [5, 9]: Slight
